Measurements: the supplement of paper PMC11061612

Columns and labels:
Assay in all cases: combination Emax (second highest fraction inhibited in the dose matrix, 72 h); higher = more inhibition; extreme values may be limits of the assay
[1] = system: AU565 (Breast Carcinoma)
Outline: (§1)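 Bliss excess equals the observed combination effect minus the expected value EA + EB − EA·EB, where EA and EB are the effects of each agent alone. Combination Emax is the second-highest inhibition within the matrix. Inhibition was scaled from CellTiter-Glo 2.0 luminescence, with 0 set by vehicle wells and 1 by blank wells, after 72 hours of two-drug dosing of cells plated in 1536-well plates.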

[2] = system: HCC1428 (Breast Carcinoma)
Outline: as §1

[3] = system: HCC70 (Breast Carcinoma)
Outline: as §1

[4] = system: NCI-H1651 (Lung Adenocarcinoma)
Outline: as §1

[5] = system: JIMT-1 (Breast Carcinoma)
Outline: as §1

[6] = system: JHU-022 (Oral Cavity Carcinoma)
Outline: as §1

[7] = system: MDA-MB-436 (Breast Carcinoma)
Outline: as §1

[8] = system: SW620 (Colorectal Carcinoma)
Outline: as §1

[9] = system: EW-7 (Ewing's Sarcoma)
Outline: as §1

[10] = system: A204 (Rhabdomyosarcoma)
Outline: as §1

[11] = system: CA46 (Burkitt's Lymphoma)
Outline: as §1

[12] = system: SK-HEP-1 (Hepatocellular Carcinoma)
Outline: as §1

[13] = system: NCI-H1703 (Squamous Cell Lung Carcinoma)
Outline: as §1

[14] = system: NCI-H2228 (Lung Adenocarcinoma)
Outline: as §1

[15] = system: UACC-812 (Breast Carcinoma)
Outline: as §1

[16] = system: 5637 (Bladder Carcinoma)
Outline: as §1

[17] = system: EPLC-272H (Other Solid Carcinomas)
Outline: as §1

[18] = system: NB13 (Neuroblastoma)
Outline: as §1

[19] = system: CGTH-W-1 (Thyroid Gland Carcinoma)
Outline: as §1

[20] = system: KYSE-140 (Esophageal Squamous Cell Carcinoma)
Outline: as §1

SMILES	combination Emax [1]	combination Emax [2]	combination Emax [3]	combination Emax [4]	combination Emax [5]	combination Emax [6]	combination Emax [7]	combination Emax [8]	combination Emax [9]	combination Emax [10]	combination Emax [11]	combination Emax [12]	combination Emax [13]	combination Emax [14]	combination Emax [15]	combination Emax [16]	combination Emax [17]	combination Emax [18]	combination Emax [19]	combination Emax [20]
CN(CCO)CC[C@H](CSc1ccccc1)Nc1ccc(S(=O)(=O)NC(=O)c2ccc(N3CCC([C@@H](O)c4ccccc4-c4ccc(Cl)cc4)CC3)cc2)cc1S(=O)(=O)C(F)(F)F [AZD4320] + CN(C)CCCOc1ccc(-c2ccc3ncc4c(c3c2)n(C2CCOCC2)c(=O)n4C)cn1 [AZD0156] (first compound max 1 µM, 7x7, partner max 1 µM)	0.253	0.541	0.281	0.0674	0.171	0.102	0.133	0.366	0.68	0.223	0.349	0.325	0.367	0.278	0.175	0.222	0.439	1	0.119	0.157
COc1nnc2ccc(N3CCC(c4ccc(OCCN5CCN(C)C(=O)[C@H]5C)cc4)CC3)nn12 [AZD5153] + C=CCn1c(=O)c2cnc(Nc3ccc(N4CCN(C)CC4)cc3)nc2n1-c1cccc(C(C)(C)O)n1 [AZD1775] (first compound max 1 µM, partner max 1 µM)	0.742	0.718	0.44	0.822	0.622	0.417	0.227	0.685	0.872	0.471	0.744	0.312	0.992	0.465	0.376	0.944	0.862	0.813	0.275	0.832
COc1nnc2ccc(N3CCC(c4ccc(OCCN5CCN(C)C(=O)[C@H]5C)cc4)CC3)nn12 [AZD5153] + CC1(C)CCC(CN2CCN(c3ccc(C(=O)NS(=O)(=O)c4ccc(NCC5CCOCC5)c([N+](=O)[O-])c4)c(Oc4cnc5[nH]ccc5c4)c3)CC2)=C(c2ccc(Cl)cc2)C1 [Venetoclax] (first compound max 1 µM, 7x7, partner max 1 µM)	0.311	0.621	0.309	0.257	0.311	0.417	0.227	0.431	0.334	0.416	0.658	0.485	0.655	0.288	0.261	0.477	0.754	0.474	0.212	0.603
COc1nnc2ccc(N3CCC(c4ccc(OCCN5CCN(C)C(=O)[C@H]5C)cc4)CC3)nn12 [AZD5153] + CCN(CCO)CCCOc1ccc2c(Nc3cc(CC(=O)Nc4cccc(F)c4)[nH]n3)ncnc2c1 [AZD2811] (first compound max 1 µM, 7x7, partner max 1 µM)	0.359	0.701	0.459	0.499	0.382	0.452	0.287	0.597	0.444	0.466	0.652	0.41	0.721	0.348	0.298	0.68	0.748	0.65	0.308	0.626
COc1nnc2ccc(N3CCC(c4ccc(OCCN5CCN(C)C(=O)[C@H]5C)cc4)CC3)nn12 [AZD5153] + C[C@@H]1COCCN1C2=NC(=NC(=C2)C3(CC3)[S@](=N)(=O)C)C4=C5C=CNC5=NC=C4 [AZD6738] (first compound max 1 µM, 7x7, partner max 10 µM)	0.502	0.732	0.659	0.767	0.77	0.563	0.332	0.784	0.961	0.573	0.754	0.406	0.973	0.594	0.479	0.823	0.919	0.917	0.448	0.821
COc1nnc2ccc(N3CCC(c4ccc(OCCN5CCN(C)C(=O)[C@H]5C)cc4)CC3)nn12 [AZD5153] + Cc1c2c(nn1C)CSCc1cc(n(C)n1)CSc1cc(c3ccccc3c1)OCCCc1c(C(=O)O)n(C)c3c-2c(Cl)ccc13 [AZD5991] (first compound max 1 µM, 7x7, partner max 1 µM)	1	0.984	0.96	0.515	0.611	0.417	0.293	0.512	0.759	0.73	0.64	0.583	0.966	0.372	0.8	0.637	0.959	0.907	0.428	0.603
COc1nnc2ccc(N3CCC(c4ccc(OCCN5CCN(C)C(=O)[C@H]5C)cc4)CC3)nn12 [AZD5153] + Cn1cnc2c(F)c(Nc3ccc(Br)cc3Cl)c(C(=O)NOCCO)cc21 [Selumetinib] (first compound max 1 µM, 7x7, partner max 10 µM)	0.328	0.728	0.584	0.138	0.426	0.508	0.217	0.76	0.357	0.484	0.633	0.234	0.626	0.428	0.331	0.81	0.868	0.565	0.356	0.557
Cc1c2c(nn1C)CSCc1cc(n(C)n1)CSc1cc(c3ccccc3c1)OCCCc1c(C(=O)O)n(C)c3c-2c(Cl)ccc13 [AZD5991] + C1CN(CCC1(C(=O)N[C@@H](CCO)C2=CC=C(C=C2)Cl)N)C3=NC=NC4=C3C=CN4 [Capivasertib] (first compound max 1 µM, 7x7, partner max 3 µM)	1	0.977	0.99	0.254	0.21	0.356	0.201	0.16	0.725	0.689	0.351	0.334	0.847	0.426	0.427	0.174	0.932	0.349	0.265	0.862
Cc1c2c(nn1C)CSCc1cc(n(C)n1)CSc1cc(c3ccccc3c1)OCCCc1c(C(=O)O)n(C)c3c-2c(Cl)ccc13 [AZD5991] + C=CCn1c(=O)c2cnc(Nc3ccc(N4CCN(C)CC4)cc3)nc2n1-c1cccc(C(C)(C)O)n1 [AZD1775] (first compound max 1 µM, partner max 1 µM)	1	0.97	0.951	0.813	0.763	0.451	0.289	0.65	0.919	0.829	0.633	0.35	0.954	0.55	0.478	0.954	0.971	0.902	0.19	0.905
Cc1c2c(nn1C)CSCc1cc(n(C)n1)CSc1cc(c3ccccc3c1)OCCCc1c(C(=O)O)n(C)c3c-2c(Cl)ccc13 [AZD5991] + CN(C)CCCOc1ccc(-c2ccc3ncc4c(c3c2)n(C2CCOCC2)c(=O)n4C)cn1 [AZD0156] (first compound max 1 µM, 7x7, partner max 1 µM)	1	0.961	0.86	0.212	0.225	0.172	0.167	0.294	0.376	0.729	0.294	0.281	0.892	0.307	0.491	0.216	0.936	0.282	0.19	0.488
Cc1c2c(nn1C)CSCc1cc(n(C)n1)CSc1cc(c3ccccc3c1)OCCCc1c(C(=O)O)n(C)c3c-2c(Cl)ccc13 [AZD5991] + C[C@@H]1COCCN1C2=NC(=NC(=C2)C3(CC3)[S@](=N)(=O)C)C4=C5C=CNC5=NC=C4 [AZD6738] (first compound max 1 µM, 7x7, partner max 10 µM)	1	0.974	0.967	0.714	0.723	0.492	0.334	0.543	0.998	0.773	0.449	0.354	0.961	0.433	0.674	0.787	0.993	0.952	0.389	0.925
Cc1c2c(nn1C)CSCc1cc(n(C)n1)CSc1cc(c3ccccc3c1)OCCCc1c(C(=O)O)n(C)c3c-2c(Cl)ccc13 [AZD5991] + C[C@@H](Nc1cc(F)cc(F)c1)c1cc(C(=O)N(C)C)cc2c(=O)cc(N3CCOCC3)oc12 [AZD8186] (first compound max 1 µM, 7x7, partner max 3 µM)	1	0.964	1	0.155	0.304	0.398	0.358	0.206	0.3	0.785	0.167	0.356	0.87	0.321	0.649	0.25	0.916	0.331	0.319	0.332
